In publication PMC4084896 (PLoS ONE, 2014):

Tests used:
[1] = biological target: T1, aryl hydrocarbon receptor AhR (Homo sapiens, UniProt P35869); test: AhR gene reporter assay in AZ-AHR cells, agonist mode; assay type: cell-based; conditions: 5 nM TCDD, four passages
T1 construct: endogenous in cells; host or cells: AZ-AHR (stably transfected reporter line derived from HepG2)
T1 sequence (P35869 11-848): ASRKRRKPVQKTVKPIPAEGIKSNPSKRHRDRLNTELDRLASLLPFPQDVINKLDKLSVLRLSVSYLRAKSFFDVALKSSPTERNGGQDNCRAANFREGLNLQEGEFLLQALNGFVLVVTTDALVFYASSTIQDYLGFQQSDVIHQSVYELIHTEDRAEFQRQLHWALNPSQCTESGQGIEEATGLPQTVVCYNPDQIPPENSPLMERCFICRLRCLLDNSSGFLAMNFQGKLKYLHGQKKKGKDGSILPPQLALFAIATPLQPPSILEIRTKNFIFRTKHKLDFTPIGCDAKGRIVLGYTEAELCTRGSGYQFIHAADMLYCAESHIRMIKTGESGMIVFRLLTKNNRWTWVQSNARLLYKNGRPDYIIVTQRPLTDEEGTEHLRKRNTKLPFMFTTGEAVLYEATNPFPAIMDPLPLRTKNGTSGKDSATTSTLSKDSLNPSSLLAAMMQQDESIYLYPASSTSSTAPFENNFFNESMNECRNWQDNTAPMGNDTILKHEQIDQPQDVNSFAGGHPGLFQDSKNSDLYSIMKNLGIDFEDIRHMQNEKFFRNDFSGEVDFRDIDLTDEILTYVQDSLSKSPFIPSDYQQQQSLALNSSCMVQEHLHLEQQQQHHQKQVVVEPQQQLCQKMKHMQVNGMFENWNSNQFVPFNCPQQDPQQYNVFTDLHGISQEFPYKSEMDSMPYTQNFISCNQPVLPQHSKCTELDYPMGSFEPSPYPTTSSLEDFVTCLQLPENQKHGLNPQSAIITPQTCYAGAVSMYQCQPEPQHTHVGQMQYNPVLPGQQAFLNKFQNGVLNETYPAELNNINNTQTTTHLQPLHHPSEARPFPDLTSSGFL
Excerpt: A stably transfected gene reporter cell line AZ-AHR, derived from human hepatoma HepG2 cells transfected with a construct containing several AhR binding sites upstream of a luciferase reporter gene, was used for assessment of AhR transcriptional activity. A stably transfected gene reporter cell line AZ-GR, derived from human cervix carcinoma HeLa cells transfected with a construct containing several GR response elements upstream of a luciferase reporter gene, was used for assessment of GR transcriptional activity. Cells were incubated for 24 h with tested compounds and/or vehicle (DMSO; 0.1% v/v), in the presence or absence of TCDD (5 nM; AZ-AHR cells) or DEX (100 nM; AZ-GR cells). After the treatments, cells were lysed and luciferase activity was measured. In parallel, cell viability was determined by conventional MTT test.
Gene reporter assays were performed in two different experimental layouts. In agonist mode, cells were treated with increasing concentrations of tested compounds, and the half-maximal effective concentrations (EC50) were calculated.

CYP1A1 mRNA [2] = test: in vitro; conditions: human, 24 h
Excerpt: (§1) Primary human hepatocytes used in this study were obtained from two sources: (i) from multiorgan donors LH52 (female; 60 years) and LH54 (person), when: a) Tissue acquisition protocol was in accordance with the requirements issued by “Ethical Committee of the Faculty Hospital Olomouc, Czech Republic” and with Transplantation law #285/2002 Sb., b) “Ethical Committee of the Faculty Hospital Olomouc, Czech Republic” approved the study and the use of primary human hepatocytes for research presented in the current paper., c) The consent from the next of kin of the donor was waived by “Ethical Committee of the Faculty Hospital Olomouc, Czech Republic”; (ii) long-term human hepatocytes in monolayer Batch HEP220770 (person), Batch HEP220774 (person) (purchased from Biopredic International, Rennes, France). Cells were cultured in serum-free medium. Cultures were maintained at 37°C and 5% CO2 in a humidified incubator.
(§2) Total RNA was isolated using TRI Reagent (Molecular Research Center, Cincinnati, OH, USA). cDNA was synthesized from 1000 ng of total RNA using M-MLV Reverse Transcriptase (Finnzymes, Espoo, Finland) at 42°C for 60 min in the presence of random hexamers (Takara, Shiga, Japan). qRT-PCR was carried out using LightCycler FastStart DNA MasterPLUS SYBR Green I (Roche Diagnostic Corporation, Prague, Czech Republic) on a Light Cycler 480 II apparatus (Roche Diagnostic Corporation). CYP1A1, CYP1A2, tyrosine aminotransferase (TAT) and GAPDH mRNAs were determined as described previously, [16]. Measurements were performed in triplicates. Gene expression was normalized to GAPDH as a housekeeping gene.

CYP1A2 mRNA = test: in vitro; conditions: human, 24 h
Excerpt: as §1, §2

CYP1A1 protein = CYP1A1 protein in primary human hepatocytes (western blot); assay type: cell-based; conditions: cultures HH52, HH54, Hep220770, 48 h
Method: Cells were cultured in serum-free medium.
Total protein extracts were prepared from cells on 6-well plates. Cells were washed twice with ice-cold PBS and scraped into 1 ml of PBS. The suspension was centrifuged (4500 RPM/5 min/4°C) and the pellet was resuspended in 150 µl of ice-cold lysis buffer (150 mM NaCl; 10 mM Tris pH 7.2; 0.1% (w/v) SDS; anti-protease cocktail, 1% (v/v) Triton X-100; anti-phosphatase cocktail, 1% (v/v) sodium deoxycholate; 5 mM EDTA). The mixture was vortexed and incubated for 10 min on ice and then centrifuged (15000 RPM/13 min/4°C). Supernatant was collected and the protein content was determined by the Bradford reagent. SDS–PAGE gels (10%) were run on a BioRad apparatus according to the general procedure followed by the protein transfer onto PVDF membrane. The membrane was saturated with 5% non-fat dried milk for 1 h at room temperature. Blots were probed with primary antibodies against CYP1A1 (goat polyclonal, sc-9828, G-18, dilution 1∶500), CYP1A2 (mouse monoclonal, sc-374228, G-4, dilution 1∶2000), actin (goat polyclonal; sc-1616, 1–19, dilution 1∶2000), all purchased from Santa Cruz Biotechnology (Santa Cruz, CA, USA). Chemiluminescent detection was performed using horseradish peroxidase-conjugated secondary antibodies (Santa Cruz Biotechnology) and Western blotting Luminol kit (Santa Cruz Biotechnology).

[3] = test system: CYP1A1/1A2 catalytic activity (EROD); test: EROD assay in primary human hepatocytes; assay type: cell-based; conditions: culture Hep220774, TCDD 5 nM, 24 h
Method: Cells were treated for 24 h with tested compounds.
The cells were treated for 24 h with (+)-KET, (−)-KET and commercial rac-KET (1 µM, 30 µM, 50 µM), and with TCDD (5 nM) and vehicle (DMSO; 0.1% V/V). […] In the cytotoxicity assay, we found all forms of KET highly toxic against human hepatocytes at the concentration 50 µM.

CYP1A1 mRNA [4] = conditions: HepG2, TCDD 5 nM, 24 h, vs vehicle
[5] = female, culture HH52, TCDD 5 nM
[6] = female, culture Hep220770, TCDD 5 nM

For Clc1cc2c(cc1Cl)Oc1cc(Cl)c(Cl)cc1O2 [TCDD, 2,3,7,8-tetrachlorodibenzo-p-dioxin], the “average induction of AhR-dependent luciferase activity” value [1] was 435 fold, the fold induction (CYP1A1 mRNA [2]; [5]) was 53 and the fold induction (CYP1A1 mRNA [2]; [6]) was 1840. It also gave a fold induction (CYP1A1 mRNA [2]; male, culture HH54, TCDD 5 nM) of 101, a fold induction (CYP1A2 mRNA; [5]) of 79 and a fold induction (CYP1A2 mRNA; [6]) of 219. For the same compound, the fold induction (CYP1A2 mRNA; male, culture HH54, TCDD 5 nM) was 30, the “CYP1A1 protein induction (in words)” value (CYP1A1 protein) was “drastic increase” and the “induction of EROD activity” value [3] was “approximately 15 fold”. For the same compound, the “CYP1A1 mRNA induction” value (CYP1A1 mRNA [4]) was “approximately 500 fold”.
